Legend:
[1] = tested on: HT-29 colorectal cancer cells; experiment: HT-29 cell viability (Real-Time-Glo); format: cell-based; conditions: luminescence at 72 h
Procedure: Equal volume of 2× RealTime-Glo™ reagent (2 μl of MT Cell Viability Substrate 1,000×, and 2 μl of NanoLuc® Enzyme 1,000×, per 1 ml of media, Promega) was added to each well and cells were incubated at 37° C. Luminescence was evaluated at 72 h.
To determine the plating density for cell viability assays, for each cell line, cells were counted and diluted to final densities of 2.5, 5, 10 and 20 thousand per 100 μl of their respective growth media per well in 96 well plates. A Promega Real-Time-Glo cell viability kit was used to determine the optimal concentration for cell plating so that each cell line would be within the linear part of its growth curve after 72 hrs in culture. […] Test compounds were then added at different concentrations for the creation of six-point curve and cell density was determined using the Promega Real-Time-Glo cell viability kit after 24, 48, and 72 hrs in culture.
Specifically, the Promega Real-Time-Glo cell viability kit was used to determine the optimal concentration for cell plating so that each cell line would be within the linear part of its growth curve after 72 hrs in culture. […] Test compounds are then added at different concentrations for the creation of six-point curve and cell density is determined using the Promega Real-Time-Glo cell viability kit after 24, 48, and 72 hrs in culture. […]

CYP1A2 = molecular target: T1, CYP1A2 (Homo sapiens, UniProt P05177); experiment: CYP-direct inhibition, CYP1A2; format: in vitro ADME; conditions: human liver microsome; substrate ethoxy-resorufin; read-out: IC50 CYP-1A2
T1 construct: from tissue; host or cells: pooled human liver microsomes
T1 sequence (P05177 1-516): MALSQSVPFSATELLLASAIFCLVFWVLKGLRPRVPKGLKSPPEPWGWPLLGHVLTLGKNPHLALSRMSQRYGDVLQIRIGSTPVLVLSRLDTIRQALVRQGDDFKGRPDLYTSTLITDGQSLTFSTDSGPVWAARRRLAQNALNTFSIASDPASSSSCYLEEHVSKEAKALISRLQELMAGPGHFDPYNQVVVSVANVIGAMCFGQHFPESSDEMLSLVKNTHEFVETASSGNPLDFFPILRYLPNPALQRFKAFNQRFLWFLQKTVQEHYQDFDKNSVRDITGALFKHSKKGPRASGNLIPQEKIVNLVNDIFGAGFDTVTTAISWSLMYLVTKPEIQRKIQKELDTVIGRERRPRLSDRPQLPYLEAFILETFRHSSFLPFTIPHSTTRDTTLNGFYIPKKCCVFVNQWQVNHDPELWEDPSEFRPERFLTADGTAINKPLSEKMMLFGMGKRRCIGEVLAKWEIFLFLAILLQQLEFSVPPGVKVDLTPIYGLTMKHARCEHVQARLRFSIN
Procedure: (§1) Many drugs inhibit cytochrome P450 enzymes to cause clinically significant changes in the pharmacokinetics of other drugs. In vitro cytochrome P450 inhibition, can provide crucial information in evaluating potential clinical drug-drug interactions and is useful for focusing in vivo tests to areas of concern. The cytochrome P450 inhibition assay was developed by preparing a working cocktail solution consisting of six probe substrates 10 μM ethoxy-resorufin (CYP1A2), 100 μM rosiglitazone (CYP2C8), 50 μM diclofenac (CYP2C9), 300 μM S-mephenytoin (CYP2C19), 50 μM dextromethorphan (CYP2D6), and 20 μM midazolam (CYP3A4). A mixture solution consists of 140 uL of 0.286 mg/mL of pooled human liver microsome working solution and 20 uL working solutions of test articles, standard control inhibitors, or positive control placebo and 20 uL of substrate cocktail mixture working solution was prepared. The mixture solution was pre-warm in a gentle shaking bath at 37±2° C. for 5 minutes. The enzymatic reaction started by adding 20 uL of NRS working solution to the mixture solution and incubated for 10 minutes at 37±2° C. To stop the reaction, an addition of 400 μL cold stop solution (acetonitrile containing 50 ng/mL Tolbutamide as an internal standard (I.Std.) was added to the mixture solution. The final concentration of test article, inhibitors, substrates, and cofactors are noted in Table 0.1 below. Two individual samples were prepared for each test compound. The extracted samples were vortexed and then centrifuged at 4500 rpm for 7 minutes using Eppendorf Centrifuge 5910R. 200 uL of supernatant was diluting with 200 uL of 50% Methanol into 96-DW plate for LC/MS/MS analysis
(§2) Concentration-response plots are used to determine the effects of an inhibitor on an enzymatic reaction. A typical concentration-response plot provides fractional activity (Y axis) is plotted as a function of log inhibitor concentration (X axis). The data are fitted using a standard Sigmoidal dose-response equation which is also called a […] logistic equation. The concentration of compound that results in 50% inhibition of maximal activity is termed as the IC50 (inhibitor concentration yielding 50% inhibition). IC50 value is calculated using Prism GraphPad software, version 9. […].
(§3) Cytochrome P450 inhibition of a drug is a key factor in determining pharmacokinetic drug-drug interactions. The objective of this study was to evaluate the inhibition potential of G9a inhibitors on six (6) major human cytochrome P450 enzymes, including CYP1A2, CYP2C8, CYP2C9, CYP2C19, CYP2D6, and CYP3A4. Inhibition was determined by using a substrate cocktail and analyzing the rate of specific metabolites formation. The cytochrome P450 inhibition assay was developed using a cocktail consisting of six (6) probe substrates ethoxy-resorufin (CYP1A2), rosiglitazone (CYP2C8), diclofenac (CYP2C9), S-mephenytoin (CYP2C19), dextromethorphan (CYP2D6), and midazolam (CYP3A4). The cocktail was incubated in human liver microsome with NADPH regenerating system (NRS) in a shaking bath at 37±2° C. The formation of specific metabolites was monitored by LC/MS/MS. Test compound was added to the cocktail-liver microsome mixture at varying concentrations and its effect on cytochrome P450 activity was determined by analyzing the rate of specific metabolite formation. The percent inhibition was calculated and plotted with reference to the concentration, and the IC50 value for inhibition was derived by fitting the data with a using log(inhibitor) vs. normalized response with variable slope least squares fit by Graphpad Prism® software. […].

CYP2C9 = molecular target: T2, CYP2C9 (Homo sapiens, UniProt P11712); experiment: CYP-direct inhibition, CYP2C9; format: in vitro ADME
T2 construct: from tissue; host or cells: pooled human liver microsomes
T2 sequence (P11712 whole entry): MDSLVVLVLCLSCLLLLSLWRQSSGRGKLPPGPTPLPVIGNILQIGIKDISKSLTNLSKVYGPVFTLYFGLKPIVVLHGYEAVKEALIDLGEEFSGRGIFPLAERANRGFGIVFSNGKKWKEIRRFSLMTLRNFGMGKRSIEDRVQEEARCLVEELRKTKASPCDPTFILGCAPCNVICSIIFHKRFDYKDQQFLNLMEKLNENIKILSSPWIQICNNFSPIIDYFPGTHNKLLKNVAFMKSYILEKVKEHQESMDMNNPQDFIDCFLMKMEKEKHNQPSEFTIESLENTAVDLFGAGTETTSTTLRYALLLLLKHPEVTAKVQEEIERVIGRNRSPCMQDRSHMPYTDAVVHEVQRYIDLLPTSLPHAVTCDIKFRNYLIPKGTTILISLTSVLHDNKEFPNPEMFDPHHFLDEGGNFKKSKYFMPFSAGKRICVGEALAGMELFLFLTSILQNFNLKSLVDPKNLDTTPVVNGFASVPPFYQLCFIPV
Procedure: as §1, §2, §3

CYP2D6 = molecular target: T3, CYP2D6 (Homo sapiens, UniProt P10635); experiment: CYP-direct inhibition, CYP2D6; format: in vitro ADME; conditions: human liver microsome; substrate dextromethorphan; read-out: IC50 CYP-2D6
T3 construct: from tissue; host or cells: pooled human liver microsomes
T3 sequence (P10635 whole entry): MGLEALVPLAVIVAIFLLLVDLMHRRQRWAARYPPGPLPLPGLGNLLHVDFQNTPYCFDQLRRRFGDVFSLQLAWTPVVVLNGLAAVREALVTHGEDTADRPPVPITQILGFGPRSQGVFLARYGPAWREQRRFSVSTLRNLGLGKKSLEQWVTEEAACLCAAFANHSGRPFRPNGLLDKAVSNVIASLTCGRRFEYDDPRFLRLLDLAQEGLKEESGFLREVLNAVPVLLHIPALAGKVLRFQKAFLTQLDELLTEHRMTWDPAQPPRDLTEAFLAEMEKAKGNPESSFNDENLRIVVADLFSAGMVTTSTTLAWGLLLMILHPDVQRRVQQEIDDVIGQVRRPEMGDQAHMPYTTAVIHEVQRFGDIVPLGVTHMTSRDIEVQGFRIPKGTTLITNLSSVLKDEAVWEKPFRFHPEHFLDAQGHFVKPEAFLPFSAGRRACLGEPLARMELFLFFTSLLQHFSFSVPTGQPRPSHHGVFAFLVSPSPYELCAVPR
Procedure: as §1, §2, §3

CYP3A4 = molecular target: T4, CYP3A4 (Homo sapiens, UniProt P08684); experiment: CYP-direct inhibition, CYP3A4; format: in vitro ADME
T4 construct: from tissue; host or cells: pooled human liver microsomes
T4 sequence (P08684 whole entry): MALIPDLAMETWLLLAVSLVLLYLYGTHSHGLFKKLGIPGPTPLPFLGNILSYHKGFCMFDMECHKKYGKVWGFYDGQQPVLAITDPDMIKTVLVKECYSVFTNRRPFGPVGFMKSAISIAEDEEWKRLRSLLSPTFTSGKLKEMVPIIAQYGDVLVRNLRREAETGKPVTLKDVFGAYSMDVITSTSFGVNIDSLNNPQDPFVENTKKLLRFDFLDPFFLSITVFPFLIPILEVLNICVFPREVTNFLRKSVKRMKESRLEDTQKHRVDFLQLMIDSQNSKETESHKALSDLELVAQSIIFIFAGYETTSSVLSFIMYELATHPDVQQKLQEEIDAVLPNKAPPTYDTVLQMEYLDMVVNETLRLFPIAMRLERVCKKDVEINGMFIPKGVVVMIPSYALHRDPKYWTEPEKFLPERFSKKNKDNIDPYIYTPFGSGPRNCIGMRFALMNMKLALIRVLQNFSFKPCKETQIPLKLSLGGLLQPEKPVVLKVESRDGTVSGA
Procedure: as §1, §2, §3

PAMPA permeability = conditions: PAMPA, 5 hours at RT
[2] = PAMPA permeability Classification, 20 μM donor
[3] = Permeability, Pe, 20 μM donor in PBS/MeOH 90:10

SMILES	growth of HT-29 colorectal cancer cells [1]	IC50 (CYP1A2) [µM]	IC50 (CYP2C9) [µM]	IC50 (CYP2D6) [µM]	IC50 (CYP3A4) [µM]	Papp at 5 h, 20 μM (PAMPA permeability; [2]) [×10⁻⁶ cm/s]	Papp at 5 h, 20 μM (PAMPA permeability; [3]) [×10⁻⁶ cm/s]
COCCN1CCC(Nc2nc(N3CCC(F)(F)CC3)nc3cc(OCCCN4CCCC4)c(OC)cc23)CC1 [Compound 3, 2-(4,4-difluoropiperidin-1-yl)-6-methoxy-N-(1-(2-methoxyethyl)piperidin-4-yl)-7-(3-(pyrrolidin-1-yl)propoxy)quinazolin-4-amine]	potent anti-cancer activity	> 100	> 100	9.55	> 100	0.055 to 1.5	0.451
COc1cc2c(NC3CCS(=O)(=O)CC3)nc(N3CCC(F)(F)CC3)nc2cc1OCCCN1CCCC1 [Compound 1, 4-((2-(4,4-difluoropiperidin-1-yl)-6-methoxy-7-(3-(pyrrolidin-1-yl)propoxy)quinazolin-4-yl)amino)tetrahydro-2H-thiopyran 1,1-dioxide]	potent anti-cancer activity	> 100	> 100	21.9	> 100	< 0.055	0.0441
